Earlier results on 1 molecule are cited in patent US20090214716A1 (priority 2005, published 2009).

The conditions of data set [1]: caffeine 0.3 mg/kg/hr vs placebo.
Data set [2] concerns the target T1, A2A receptors that are located on the platelet surface (Homo sapiens, UniProt P29274).
T1 construct: up-regulation of endogenous adenosine receptors in normal subjects; host or cells: human platelets of normal subjects (endogenous)
Conditions: chronic caffeine consumption.

T1 sequence (P29274 whole entry): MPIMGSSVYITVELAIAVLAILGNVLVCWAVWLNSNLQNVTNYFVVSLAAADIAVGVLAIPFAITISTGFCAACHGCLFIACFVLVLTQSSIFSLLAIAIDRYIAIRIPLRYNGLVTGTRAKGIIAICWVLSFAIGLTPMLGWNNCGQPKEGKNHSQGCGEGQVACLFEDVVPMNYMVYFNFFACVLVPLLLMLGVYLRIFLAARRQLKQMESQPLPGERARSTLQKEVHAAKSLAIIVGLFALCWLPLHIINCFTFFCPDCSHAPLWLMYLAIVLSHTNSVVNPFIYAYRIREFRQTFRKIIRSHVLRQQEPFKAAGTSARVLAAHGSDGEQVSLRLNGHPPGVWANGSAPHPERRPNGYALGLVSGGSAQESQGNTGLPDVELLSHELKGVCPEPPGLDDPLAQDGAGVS

Turning to `Cn1c(=O)c2c(ncn2C)n(C)c1=O` [caffeine, 1,3,7-trimethylxanthine], in data set [1], the “performance on cognitive tests” value is “performed better on cognitive tests” and the reported sleepiness result is reported as “reported feeling sleepier than their placebo counterparts”. Also, the platelet aggregability result in data set [2] is “reduction in platelet aggregability”. Also, the “effect on endogenous adenosine receptors” value in data set [2] (normal subjects) is “sensitization and/or up-regulation of endogenous adenosine receptors”.
